Experimental data published in ChEMBL document CHEMBL1153358, “Amide analogs of antifungal dioxane-triazole derivatives: synthesis and in vitro activities” (Bioorg Med Chem Lett, 2009).
≈ marks a conversion by molar mass, not a printed value.

Columns and labels:
Candida albicans [1] = assay: Antifungal activity against Candida albicans SANK 51486; assay type: functional
Candida albicans [2] = assay: Antifungal activity against fluconazole-resistant Candida albicans TIMM3164; assay type: functional
Nakaseomyces glabratus = assay: Antifungal activity against Candida glabrata ATCC 90030; assay type: functional
Candida tropicalis = assay: Antifungal activity against Candida tropicalis ATCC 750; assay type: functional
Cryptococcus neoformans = assay: Antifungal activity against Cryptococcus neoformans TIMM 1855; assay type: functional
Aspergillus fumigatus [3] = assay: Antifungal activity against Aspergillus fumigatus SANK 10569; assay type: functional
Aspergillus flavus = assay: Antifungal activity against Aspergillus flavus SANK 18497; assay type: functional
Candida albicans [4] = assay: Antifungal activity against Candida albicans ATCC 24433; assay type: functional
Candida albicans [5] = assay: Antifungal activity against Candida albicans ATCC 64550; assay type: functional
Candida parapsilosis = assay: Antifungal activity against Candida parapsilosis ATCC 90018; assay type: functional; details: Lodderomyces parapsilosis
Pichia kudriavzevii = assay: Antifungal activity against Candida krusei ATCC 6258; assay type: functional
Aspergillus fumigatus [6] = assay: Antifungal activity against Aspergillus fumigatus ATCC 26430; assay type: functional
[7] = Chemical stability assessed as half life in HCl; assay type: physicochemical
[8] = Bioavailability in rat at 20 mg/kg, po; assay type: ADME, organism-based; details: in vivo

## C[C@@H](S[C@H]1CO[C@H](c2ccc(C(=O)Nc3nccs3)cc2)OC1)[C@](O)(Cn1cncn1)c1ccc(F)cc1F
Candida albicans [1]
  MIC: ≤ 0.008 µg/mL
Candida albicans [2]
  MIC: 0.031 µg/mL (≈ 0.054 µM)
Nakaseomyces glabratus
  MIC: 2 µg/mL (≈ 3.49 µM)
Candida tropicalis
  MIC: 0.125 µg/mL (≈ 0.218 µM)
Cryptococcus neoformans
  MIC: 0.125 µg/mL (≈ 0.218 µM)
Aspergillus fumigatus [3]
  MIC: 0.063 µg/mL (≈ 0.11 µM)
Aspergillus flavus
  MIC: 0.5 µg/mL (≈ 0.872 µM)

## Cc1ccc(NC(=O)c2ccc([C@H]3OC[C@H](S[C@H](C)[C@](O)(Cn4cncn4)c4ccc(F)cc4F)CO3)cc2)cc1
Candida albicans [1]
  MIC: ≤ 0.008 µg/mL
Candida albicans [2]
  MIC: 0.016 µg/mL (≈ 0.0276 µM)
Nakaseomyces glabratus
  MIC: 2 µg/mL (≈ 3.44 µM)
Candida tropicalis
  MIC: ≤ 0.008 µg/mL
Cryptococcus neoformans
  MIC: 0.031 µg/mL (≈ 0.0534 µM)
Aspergillus fumigatus [3]
  MIC: 0.063 µg/mL (≈ 0.108 µM)
Aspergillus flavus
  MIC: 0.25 µg/mL (≈ 0.431 µM)

## C[C@@H](S[C@H]1CO[C@H](c2ccc(C(=O)N3CCSCC3)cc2)OC1)[C@](O)(Cn1cncn1)c1ccc(F)cc1F
Candida albicans [1]
  MIC: 0.016 µg/mL (≈ 0.0277 µM)
Candida albicans [2]
  MIC: 0.125 µg/mL (≈ 0.217 µM)
Nakaseomyces glabratus
  MIC: 4 µg/mL (≈ 6.94 µM)
Candida tropicalis
  MIC: 0.5 µg/mL (≈ 0.867 µM)
Cryptococcus neoformans
  MIC: 0.031 µg/mL (≈ 0.0538 µM)
Aspergillus fumigatus [3]
  MIC: 0.5 µg/mL (≈ 0.867 µM)
Aspergillus flavus
  MIC: 4 µg/mL (≈ 6.94 µM)

## C[C@@H](S[C@H]1CO[C@H](c2ccc(C(=O)Nc3ccc(O)cc3)cc2)OC1)[C@](O)(Cn1cncn1)c1ccc(F)cc1F
Candida albicans [1]
  MIC: 0.016 µg/mL (≈ 0.0275 µM)
Candida albicans [2]
  MIC: 0.063 µg/mL (≈ 0.108 µM)
Nakaseomyces glabratus
  MIC: > 4 µg/mL
Candida tropicalis
  MIC: 0.25 µg/mL (≈ 0.429 µM)
Cryptococcus neoformans
  MIC: 0.25 µg/mL (≈ 0.429 µM)
Aspergillus fumigatus [3]
  MIC: 0.5 µg/mL (≈ 0.858 µM)
Aspergillus flavus
  MIC: 1 µg/mL (≈ 1.72 µM)

## CC(=O)c1ccc(NC(=O)c2ccc([C@H]3OC[C@H](S[C@H](C)[C@](O)(Cn4cncn4)c4ccc(F)cc4F)CO3)cc2)cc1
Candida albicans [1]
  MIC: ≤ 0.008 µg/mL
Candida albicans [2]
  MIC: 0.031 µg/mL (≈ 0.0509 µM)
Nakaseomyces glabratus
  MIC: > 4 µg/mL
Candida tropicalis
  MIC: 0.125 µg/mL (≈ 0.205 µM)
Cryptococcus neoformans
  MIC: 0.125 µg/mL (≈ 0.205 µM)
Aspergillus fumigatus [3]
  MIC: 0.063 µg/mL (≈ 0.104 µM)
Aspergillus flavus
  MIC: 0.25 µg/mL (≈ 0.411 µM)

## C[C@@H](S[C@H]1CO[C@H](/C=C/C(=O)c2ccc(F)cc2)OC1)[C@](O)(Cn1cncn1)c1ccc(F)cc1F.O=C(O)/C=C\C(=O)O
Candida albicans [1]
  MIC: ≤ 0.008 µg/mL
Candida albicans [2]
  MIC: 0.125 µg/mL
Nakaseomyces glabratus
  MIC: 1 µg/mL
Candida tropicalis
  MIC: 0.5 µg/mL
Cryptococcus neoformans
  MIC: 0.125 µg/mL
Aspergillus fumigatus [3]
  MIC: 1 µg/mL
Aspergillus flavus
  MIC: > 4 µg/mL

## C[C@@H](S[C@H]1CO[C@H](c2ccc(C(=O)Nc3ccc(SC(F)(F)F)cc3)cc2)OC1)[C@](O)(Cn1cncn1)c1ccc(F)cc1F
Candida albicans [1]
  MIC: ≤ 0.008 µg/mL
Candida albicans [2]
  MIC: 0.031 µg/mL (≈ 0.0465 µM)
Nakaseomyces glabratus
  MIC: 1 µg/mL (≈ 1.5 µM)
Candida tropicalis
  MIC: 0.031 µg/mL (≈ 0.0465 µM)
Cryptococcus neoformans
  MIC: 0.016 µg/mL (≈ 0.024 µM)
Aspergillus fumigatus [3]
  MIC: 0.25 µg/mL (≈ 0.375 µM)
Aspergillus flavus
  MIC: 0.5 µg/mL (≈ 0.75 µM)

## C[C@@H](S[C@H]1CO[C@H](c2ccc(C(=O)Nc3ccc(Br)cc3)cc2)OC1)[C@](O)(Cn1cncn1)c1ccc(F)cc1F
Candida albicans [1]
  MIC: ≤ 0.008 µg/mL
Candida albicans [2]
  MIC: 0.016 µg/mL (≈ 0.0248 µM)
Nakaseomyces glabratus
  MIC: > 4 µg/mL
Candida tropicalis
  MIC: ≤ 0.008 µg/mL
Cryptococcus neoformans
  MIC: 0.016 µg/mL (≈ 0.0248 µM)
Aspergillus fumigatus [3]
  MIC: 0.063 µg/mL (≈ 0.0976 µM)
Aspergillus flavus
  MIC: 0.125 µg/mL (≈ 0.194 µM)

## C[C@@H](S[C@H]1CO[C@H](/C=C/C=C/c2ccc(C#N)cc2F)OC1)[C@](O)(Cn1cncn1)c1ccc(F)cc1F [EMBECONAZOLE]
Candida albicans [1]
  MIC: ≤ 0.008 µg/mL
Candida albicans [2]
  MIC: 0.063 µg/mL (≈ 0.116 µM)
Nakaseomyces glabratus
  MIC: 1 µg/mL (≈ 1.84 µM)
Candida tropicalis
  MIC: 0.25 µg/mL (≈ 0.461 µM)
Cryptococcus neoformans
  MIC: 0.016 µg/mL (≈ 0.0295 µM)
Aspergillus fumigatus [3]
  MIC: 0.063 µg/mL (≈ 0.116 µM)
Aspergillus flavus
  MIC: 0.25 µg/mL (≈ 0.461 µM)
Candida albicans [4]
  MIC: 0.016 µg/mL (≈ 0.0295 µM)
Candida albicans [5]
  MIC: 0.5 µg/mL (≈ 0.922 µM)
Candida parapsilosis
  MIC: 0.016 µg/mL (≈ 0.0295 µM)
Pichia kudriavzevii
  MIC: 0.25 µg/mL (≈ 0.461 µM)
Aspergillus fumigatus [6]
  MIC: 0.063 µg/mL (≈ 0.116 µM)
[7]
  half-life: 6.4 min
[8]
  bioavailability: 113%

## C[C@@H](S[C@H]1CO[C@H](c2ccc(C(=O)Nc3ccncc3)cc2)OC1)[C@](O)(Cn1cncn1)c1ccc(F)cc1F
Candida albicans [1]
  MIC: ≤ 0.008 µg/mL
Candida albicans [2]
  MIC: 0.031 µg/mL (≈ 0.0546 µM)
Nakaseomyces glabratus
  MIC: > 4 µg/mL
Candida tropicalis
  MIC: 0.125 µg/mL (≈ 0.22 µM)
Cryptococcus neoformans
  MIC: 0.125 µg/mL (≈ 0.22 µM)
Aspergillus fumigatus [3]
  MIC: 0.25 µg/mL (≈ 0.44 µM)
Aspergillus flavus
  MIC: 0.25 µg/mL (≈ 0.44 µM)

## C[C@@H](S[C@H]1CO[C@H](/C=C/S(=O)(=O)c2ccc(F)cc2)OC1)[C@](O)(Cn1cncn1)c1ccc(F)cc1F.O=C(O)/C=C\C(=O)O
Candida albicans [1]
  MIC: ≤ 0.008 µg/mL
Candida albicans [2]
  MIC: 0.125 µg/mL
Nakaseomyces glabratus
  MIC: 2 µg/mL
Candida tropicalis
  MIC: 0.5 µg/mL
Cryptococcus neoformans
  MIC: 0.125 µg/mL
Aspergillus fumigatus [3]
  MIC: 4 µg/mL
Aspergillus flavus
  MIC: > 4 µg/mL

## C[C@@H](S[C@H]1CO[C@H](c2ccc(C(=O)Nc3ccc(C#N)cc3)cc2F)OC1)[C@](O)(Cn1cncn1)c1ccc(F)cc1F
Candida albicans [1]
  MIC: ≤ 0.008 µg/mL
Candida albicans [2]
  MIC: 0.031 µg/mL (≈ 0.0509 µM)
Nakaseomyces glabratus
  MIC: 2 µg/mL (≈ 3.28 µM)
Candida tropicalis
  MIC: ≤ 0.008 µg/mL
Cryptococcus neoformans
  MIC: 0.031 µg/mL (≈ 0.0509 µM)
Aspergillus fumigatus [3]
  MIC: 0.063 µg/mL (≈ 0.103 µM)
Aspergillus flavus
  MIC: 0.25 µg/mL (≈ 0.41 µM)

## C[C@@H](S[C@H]1CO[C@H](c2ccc(C(=O)Nc3ccc(C#N)cc3F)cc2)OC1)[C@](O)(Cn1cncn1)c1ccc(F)cc1F
Candida albicans [1]
  MIC: ≤ 0.008 µg/mL
Candida albicans [2]
  MIC: 0.016 µg/mL (≈ 0.0262 µM)
Nakaseomyces glabratus
  MIC: > 4 µg/mL
Candida tropicalis
  MIC: 0.031 µg/mL (≈ 0.0509 µM)
Cryptococcus neoformans
  MIC: 0.063 µg/mL (≈ 0.103 µM)
Aspergillus fumigatus [3]
  MIC: 0.031 µg/mL (≈ 0.0509 µM)
Aspergillus flavus
  MIC: 0.125 µg/mL (≈ 0.205 µM)

## C[C@@H](S[C@H]1CO[C@H](c2ccc(C(=O)N3CCOCC3)cc2)OC1)[C@](O)(Cn1cncn1)c1ccc(F)cc1F
Candida albicans [1]
  MIC: 0.063 µg/mL (≈ 0.112 µM)
Candida albicans [2]
  MIC: 0.25 µg/mL (≈ 0.446 µM)
Nakaseomyces glabratus
  MIC: > 4 µg/mL
Candida tropicalis
  MIC: 1 µg/mL (≈ 1.78 µM)
Cryptococcus neoformans
  MIC: 0.125 µg/mL (≈ 0.223 µM)
Aspergillus fumigatus [3]
  MIC: 4 µg/mL (≈ 7.13 µM)
Aspergillus flavus
  MIC: > 4 µg/mL
